Experimental data as given in US20060160701A1, “Natural herbicidal agent containing momilactones A and B identified in and isolated from rice hulls” (Konkuk University Industrial Cooperation Corp., priority 2005, published 2006).

Assays:
rice roots = conditions: derivatives of momilactones A and B; Kato et al., Phytochemistry 16, 1977; cited from earlier work
lettuce seeds = conditions: derivatives of momilactones A and B; Kato et al., Phytochemistry 16, 1977; cited from earlier work
[1] = tested on: duckweed (Lemna paucicostata Hegelm 381); experiment: Bioactivity assay using duckweed (Lemna assay); type: in vivo; conditions: 5 days; for Visual injury symptoms (%): scale 0 (no effect) to 100 (complete death)
Protocol: (§1) The momilactones thus isolated and purified according to the method were dissolved in acetone containing a non-ionic surfactant, Tween-20, and diluted with ½ hunter medium, thus generating a growth/germination inhibition solution. The solution contained acetone and Tween-20 in final concentrations of 1% and 0.01% by weight, respectively. The acetone and Tween-20 were found not to cause growth or germination inhibition.
After 2 ml of the growth/germination inhibition solution, prepared in Example, was aliquotted in triplets into a 24-well plate, one duckweed plant having four fronds was transplanted into each well. The plate was incubated in a growth chamber (26° C., 14 h photoperiod, 50 μmol/m^2s) for 5 days. Herbicidal activity was determined by visual scoring and by measuring the chlorophyll content.
The chlorophyll was extracted in DMSO (dimethyl sulfoxide), and absorbance was measured using a UV-VIS spectrophotometer. The chlorophyll content was determined based on the absorbance data according to a method described by Hiscox and Israelstam (Hiscox, J. D. and Israelstam, G. F., Can. J. Bot., 57, 1332-1334, 1979).
The inhibitory effects of the compounds on chlorophyll content in duckweed were expressed as a percentage (%) of the corresponding values obtained for a control.
Thus, a minus value indicates growth stimulation, and a plus value indicates growth inhibition. • Chlorophyll content (μg/ml)=2.367×(absorbance)^2+6.299×absorbance+0.169 (r=0.999) • Inhibition of chlorophyll content (%)=[(control-test group)/control]×100

Cyperus difformis L. = experiment: Germination assay in culture tube (GACT), Cyperus difformis seeds; type: in vivo; conditions: I: Cyperus difformis L., seven days
Protocol: as §1
(§2) Seeds of three weed species, Leptochloa chinensis L., Amaranthus retroflexus L. and Cyperus difformis L., which were collected on October 2002 and stored at −35° C. after floating matter was removed using distilled water, were used in this test.
(§3) The weed seeds were surface-sterilized in a 1:10 (v/v) dilution of an aqueous hypochlorite solution for 10 min and washed with distilled water several times according to a method described by Choi et al. (CHOI, J. S. et al., Korean J. Weed Sci., 22, 339-413, 2002).
(§4) 650 mg of sea sand was placed into disposable culture tubes (12×75 mm), which contained the growth/germination inhibition solution at concentrations of 4, 20, 100 and 1000 ppm. 2 mg of each seed of the three weed species was added to the tubes, and was then incubated in a growth chamber (25° C., 12 h photoperiod, 20 μmol/m^2s).
(§5) After seven days, percentage germination of the weed seeds was determined. Using the percentage germination, the inhibitory effects of the growth/germination inhibition solution on germination and fresh weight of the seeds were evaluated. • Germination inhibition (%)=[(control−test group)/control]×100 • Fresh weight inhibition (%)=[(control−test group)/control]×100

[2] = tested on: Leptochloa chinensis (L.) Ness; experiment: Germination assay in culture tube (GACT), Leptochloa chinensis seeds; type: in vivo; conditions: II: Leptochloa chinensis (L.) Ness, seven days
Protocol: as §1, §2, §3, §4, §5

[3] = tested on: Amaranthus retroflexus L.; experiment: Germination assay in culture tube (GACT), Amaranthus retroflexus seeds; type: in vivo; conditions: III: Amaranthus retroflexus L., seven days
Protocol: as §1, §2, §3, §4, §5

[4] = tested on: three weed species, Leptochloa chinensis L., Amaranthus retroflexus L. and Cyperus difformis L.; experiment: Germination assay in culture tube (GACT), three weed species taken together; type: in vivo; conditions: 20 ppm
Protocol: as §1, §2
The weed seeds were surface-sterilized in a 1:10 (v/v) dilution of an aqueous hypochlorite solution for 10 min and washed with distilled water several times according to a method described by Choi et al. (CHOI, J. S. et al., Korean J. Weed Sci., 22, 339-413, 2002). […]
as §5

rice seedlings = conditions: Kato-Naguchi et al., Physiologia Plantarum 115, 2002; cited from earlier work

For 3-hydro momilactone A, the “inhibition of the growth of rice roots” value (rice roots) is listed as “strongest inhibitory activity” and the “inhibition of the germination of lettuce seeds” value (lettuce seeds) is listed as “strongest inhibitory activity”.
For C=C[C@]1(C)CC[C@@H]2C(=C[C@H]3OC(=O)[C@@]4(C)C(=O)CC[C@@]2(C)[C@@H]34)C1 [Momilactone A], the “Inhibition of chlorophyll content (%)” value ([1]; 1 ppm) was 27.0%, the “Visual injury symptoms (%)” value ([1]; 1 ppm) was 20% and the “Inhibition of chlorophyll content (%)” value ([1]; 3.3 ppm) was 52.3%. For the same compound, the “Visual injury symptoms (%)” value ([1]; 3.3 ppm) was 50%, the “Inhibition of chlorophyll content (%)” value ([1]; 10 ppm) was 85.8% and the “Visual injury symptoms (%)” value ([1]; 10 ppm) was 70%. For the same compound, the “Inhibition of chlorophyll content (%)” value ([1]; 33 ppm) was 95.6%, the “Visual injury symptoms (%)” value ([1]; 33 ppm) was 90% and the “Inhibition of chlorophyll content (%)” value ([1]; 100 ppm) was 98.9%. The “Visual injury symptoms (%)” value ([1]; 100 ppm) was 95%, the “Fresh weight inhibition (%)” value (Cyperus difformis L.; 4 ppm) was 0% and the “Germination inhibition (%)” value (Cyperus difformis L.; 4 ppm) was 20%. For the same compound, the “Fresh weight inhibition (%)” value (Cyperus difformis L.; 20 ppm) was 100%, the “Germination inhibition (%)” value (Cyperus difformis L.; 20 ppm) was 97.5% and the “Fresh weight inhibition (%)” value (Cyperus difformis L.; 100 ppm) was 100%. The “Germination inhibition (%)” value (Cyperus difformis L.; 100 ppm) was 100%, the “Fresh weight inhibition (%)” value (Cyperus difformis L.; 1000 ppm) was 100% and the “Germination inhibition (%)” value (Cyperus difformis L.; 1000 ppm) was 100%. The “Fresh weight inhibition (%)” value ([2]; 4 ppm) was 0%, the “Germination inhibition (%)” value ([2]; 4 ppm) was 0% and the “Fresh weight inhibition (%)” value ([2]; 20 ppm) was 0%. For the same compound, the “Germination inhibition (%)” value ([2]; 20 ppm) was 0%, the “Fresh weight inhibition (%)” value ([2]; 100 ppm) was 48.4% and the “Germination inhibition (%)” value ([2]; 100 ppm) was 70%. For the same compound, the “Fresh weight inhibition (%)” value ([2]; 1000 ppm) was 100%, the “Germination inhibition (%)” value ([2]; 1000 ppm) was 100% and the “Fresh weight inhibition (%)” value ([3]; 4 ppm) was 0%. For the same compound, the “Germination inhibition (%)” value ([3]; 4 ppm) was 20%, the “Fresh weight inhibition (%)” value ([3]; 20 ppm) was 18.6% and the “Germination inhibition (%)” value ([3]; 20 ppm) was 20%. The “Fresh weight inhibition (%)” value ([3]; 100 ppm) was 33.3%, the “Germination inhibition (%)” value ([3]; 100 ppm) was 30% and the “Fresh weight inhibition (%)” value ([3]; 1000 ppm) was 100%. The “Germination inhibition (%)” value ([3]; 1000 ppm) was 100%.
For C=C[C@]1(C)CC[C@@H]2C(=C[C@H]3OC(=O)[C@]4(C)[C@H]3[C@]23CC[C@@]4(O)OC3)C1 [Momilactone B], the “Inhibition of chlorophyll content (%)” value ([1]; 1 ppm) was 33.9%, the “Visual injury symptoms (%)” value ([1]; 1 ppm) was 20% and the “Inhibition of chlorophyll content (%)” value ([1]; 3.3 ppm) was 91.9%. For the same compound, the “Visual injury symptoms (%)” value ([1]; 3.3 ppm) was 70%, the “Inhibition of chlorophyll content (%)” value ([1]; 10 ppm) was 98.3% and the “Visual injury symptoms (%)” value ([1]; 10 ppm) was 98%. For the same compound, the “Inhibition of chlorophyll content (%)” value ([1]; 33 ppm) was 100%, the “Visual injury symptoms (%)” value ([1]; 33 ppm) was 100% and the “Visual injury symptoms (%)” value ([1]; 33 ppm, listed as momilactone B) was “complete death”. For the same compound, the “Inhibition of chlorophyll content (%)” value ([1]; 100 ppm) was 100%, the “Visual injury symptoms (%)” value ([1]; 100 ppm) was 100% and the “Visual injury symptoms (%)” value ([1]; 100 ppm, listed as momilactone B) was “complete death”. The “Fresh weight inhibition (%)” value (Cyperus difformis L.; 4 ppm) was 15%, the “Germination inhibition (%)” value (Cyperus difformis L.; 4 ppm) was 23.3% and the “Fresh weight inhibition (%)” value (Cyperus difformis L.; 20 ppm) was 100%. For the same compound, the “Germination inhibition (%)” value (Cyperus difformis L.; 20 ppm) was 100%, the “Fresh weight inhibition (%)” value (Cyperus difformis L.; 100 ppm) was 100% and the “Germination inhibition (%)” value (Cyperus difformis L.; 100 ppm) was 100%. For the same compound, the “Fresh weight inhibition (%)” value (Cyperus difformis L.; 1000 ppm) was 100%, the “Germination inhibition (%)” value (Cyperus difformis L.; 1000 ppm) was 100% and the “Fresh weight inhibition (%)” value ([2]; 4 ppm) was 23.3%. The “Germination inhibition (%)” value ([2]; 4 ppm) was 100%, the “Fresh weight inhibition (%)” value ([2]; 20 ppm) was 100% and the “Germination inhibition (%)” value ([2]; 20 ppm) was 100%. For the same compound, the “Fresh weight inhibition (%)” value ([2]; 100 ppm) was 100%, the “Germination inhibition (%)” value ([2]; 100 ppm) was 100% and the “Fresh weight inhibition (%)” value ([2]; 1000 ppm) was 100%. The “Germination inhibition (%)” value ([2]; 1000 ppm) was 100%, the “Fresh weight inhibition (%)” value ([3]; 4 ppm) was 12.5% and the “Germination inhibition (%)” value ([3]; 4 ppm) was 15%. For the same compound, the “Fresh weight inhibition (%)” value ([3]; 20 ppm) was 100%, the “Germination inhibition (%)” value ([3]; 20 ppm) was 100% and the “Fresh weight inhibition (%)” value ([3]; 100 ppm) was 100%. The “Germination inhibition (%)” value ([3]; 100 ppm) was 100%, the “Fresh weight inhibition (%)” value ([3]; 1000 ppm) was 100% and the “Germination inhibition (%)” value ([3]; 1000 ppm) was 100%. For the same compound, the “inhibition of germination of all tested weed species” value [4] was “completely inhibited”, the “inhibition of growth of all tested weed species” value [4] was “completely inhibited” and the “inhibition of the growth of rice seedlings” value (rice seedlings) was “inhibiting the growth of rice seedlings”.
In the case of acetyl momilactone B, the “inhibition of the growth of rice roots” value (rice roots) is given as “strongest inhibitory activity” and the “inhibition of the germination of lettuce seeds” value (lettuce seeds) is given as “strongest inhibitory activity”.
